Results reported in patent EP0496332A1, “Alpha-aminoquinolinoyl-[3]-penicillines, process for their preparation and their use as antibacterial agents” (ARZNEIMITTELWERK DRESDEN GmbH, priority 1991, dated 1992).
Values after ≈ are worked out from the molar mass of the structure shown.

Legend:
Assay in all cases: In-vitro test, inhibitory concentration by dilution series
Assay type in all cases: cell-based
[1] = tested on: Pseudomonas aeruginosa SG 137; details: SG137; V = Pseudomonas aeruginosa SG 137; step = concentration with no visible growth; read-out: Hemmkonzentration nach Verdünnung (Verdünnungsreihe) (converted)
Description: (§1) Die antibiotische Wirksamkeit erfindungsgemäßer Verbindungen wurde in der üblichen Weise durch Ermittlung der Hemmkonzentrationen nach Verdünnung ermittelt.
(§2) Die erhaltenen Ergebnisse sind in der nachstehenden Tabelle zusammengefaßt.

[2] = tested on: Enterokokken; details: XI = Enterokokken, Laborstämme; step = concentration with no visible growth; read-out: Hemmkonzentration nach Verdünnung (Verdünnungsreihe) (converted)
Description: as §1, §2

[3] = tested on: Citrobacter freudii; details: XIV = Citrobacter freudii, Laborstämme; step = concentration with no visible growth; read-out: Hemmkonzentration nach Verdünnung (Verdünnungsreihe) (converted)
Description: as §1, §2

[4] = tested on: Pseudomonas aeruginosa NCTC 10701; details: NCTC10701; IV = Pseudomonas aeruginosa NCTC 10701; step = concentration with no visible growth; read-out: Hemmkonzentration nach Verdünnung (Verdünnungsreihe) (converted)
Description: as §1, §2

[5] = tested on: Escherichia coli; details: XII = Escherichia coli, Laborstämme; step = concentration with no visible growth; read-out: Hemmkonzentration nach Verdünnung (Verdünnungsreihe) (converted)
Description: as §1, §2

[6] = tested on: Enterobacter cloacae; details: XIII = Enterobacter cloacae, Laborstämme; step = concentration with no visible growth; read-out: Hemmkonzentration nach Verdünnung (Verdünnungsreihe) (converted)
Description: as §1, §2

[7] = tested on: Proteus vulgaris OX 19; details: OX19; III = Proteus vulgaris OX 19; step = concentration with no visible growth; read-out: Hemmkonzentration nach Verdünnung (Verdünnungsreihe) (converted)
Description: as §1, §2

[8] = tested on: Serratia marcescens SG 621; details: SG621; VIII = Serratia marcescens SG 621; step = concentration with no visible growth; read-out: Hemmkonzentration nach Verdünnung (Verdünnungsreihe) (converted)
Description: as §1, §2

[9] = tested on: Staphylococcus epidermidis; details: X = Staphylococcus epidermidis, Laborstämme; step = concentration with no visible growth; read-out: Hemmkonzentration nach Verdünnung (Verdünnungsreihe) (converted)
Description: as §1, §2

[10] = tested on: Klebsiella pneumoniae SG 117; details: SG117; VII = Klebsiella pneumoniae SG 117; step = concentration with no visible growth; read-out: Hemmkonzentration nach Verdünnung (Verdünnungsreihe) (converted)
Description: as §1, §2

[11] = tested on: Bacillus subtilis SG 119; details: SG119; I = Bacillus subtilis SG 119; step = concentration with no visible growth; read-out: Hemmkonzentration nach Verdünnung (Verdünnungsreihe) (converted)
Description: as §1, §2

[12] = tested on: Salmonella gallinarium ATCC 9184; details: ATCC9184; VI = Salmonella gallinarium ATCC 9184; step = concentration with no visible growth; read-out: Hemmkonzentration nach Verdünnung (Verdünnungsreihe) (converted)
Description: as §1, §2

[13] = tested on: Staphylococcus aureus; details: IX = Staphylococcus aureus, Laborstämme; step = concentration with no visible growth; read-out: Hemmkonzentration nach Verdünnung (Verdünnungsreihe) (converted)
Description: as §1, §2

[14] = tested on: Staphylococcus aureus SG 511; details: SG511; II = Staphylococcus aureus SG 511; step = concentration with no visible growth; read-out: Hemmkonzentration nach Verdünnung (Verdünnungsreihe) (converted)
Description: as §1, §2

Compound	MIC [1]	MIC [2]	MIC [3]	MIC [4]	MIC [5]	MIC [6]	MIC [7]	MIC [8]	MIC [9]	MIC [10]	MIC [11]	MIC [12]	MIC [13]	MIC [14]
CCCOCc1cc2ncc(C(=O)N[C@@H](C(=O)N[C@@H]3C(=O)N4[C@@H]3SC(C)(C)[C@@H]4C(=O)O)c3ccccc3)c(OC(=O)OCC)c2cc1CC [Beisp. 5, 6-[D-(-)-α-([4'-Ethoxycarbonyloxy-6'-ethyl-7'-n-propoxymethylen-chinolinoyl-3']-carboxamido)-α-phenylacetamido]-penicillansäure-Natriumsalz]	3.12 µM (≈ 2.16 µg/mL)	6.25 µM (≈ 4.33 µg/mL)	6.25 µM (≈ 4.33 µg/mL)	0.78 µM (≈ 0.54 µg/mL)	1.56 µM (≈ 1.08 µg/mL)	6.25 µM (≈ 4.33 µg/mL)	0.78 µM (≈ 0.54 µg/mL)	1.56 µM (≈ 1.08 µg/mL)	3.12 µM (≈ 2.16 µg/mL)	3.12 µM (≈ 2.16 µg/mL)	0.78 µM (≈ 0.54 µg/mL)	3.12 µM (≈ 2.16 µg/mL)	6.25 µM (≈ 4.33 µg/mL)	1.56 µM (≈ 1.08 µg/mL)
CCOCc1cc2ncc(C(=O)N[C@@H](C(=O)N[C@@H]3C(=O)N4[C@@H]3SC(C)(C)[C@@H]4C(=O)O)c3ccccc3)c(OC(=O)OCC)c2cc1CC [Beisp. 6, 6-[D-(-)-α-([4'-Ethoxycarbonyloxy-6'-ethyl-7'-ethoxy-methylen-chinolinoyl-3']-carboxamido)-α-phenylacetamido]-penicillansäure-Natriumsalz]	6.25 µM (≈ 4.24 µg/mL)	12.5 µM (≈ 8.48 µg/mL)	3.12 µM (≈ 2.12 µg/mL)	0.78 µM (≈ 0.529 µg/mL)	1.56 µM (≈ 1.06 µg/mL)	3.12 µM (≈ 2.12 µg/mL)	0.39 µM (≈ 0.265 µg/mL)	1.56 µM (≈ 1.06 µg/mL)	6.25 µM (≈ 4.24 µg/mL)	0.78 µM (≈ 0.529 µg/mL)	1.56 µM (≈ 1.06 µg/mL)	1.56 µM (≈ 1.06 µg/mL)	12.5 µM (≈ 8.48 µg/mL)	1.56 µM (≈ 1.06 µg/mL)
COc1ccc2ncc(C(=O)N[C@@H](C(=O)N[C@@H]3C(=O)N4[C@@H]3SC(C)(C)[C@@H]4C(=O)O)c3ccccc3)c(O)c2c1 [Beisp. 9, 6-[D-(-)-α-([4'-Hydroxy-6'-methoxy-chinolinoyl-3']-carboxamido)-α-phenylacetamido]-penicillansäure-Natriumsalz]	25 µM (≈ 13.8 µg/mL)	25 µM (≈ 13.8 µg/mL)	25 µM (≈ 13.8 µg/mL)	0.39 µM (≈ 0.215 µg/mL)	3.12 µM (≈ 1.72 µg/mL)	25 µM (≈ 13.8 µg/mL)	0.39 µM (≈ 0.215 µg/mL)	1.56 µM (≈ 0.859 µg/mL)	6.25 µM (≈ 3.44 µg/mL)	1.56 µM (≈ 0.859 µg/mL)	1.56 µM (≈ 0.859 µg/mL)	1.56 µM (≈ 0.859 µg/mL)	12.5 µM (≈ 6.88 µg/mL)	1.56 µM (≈ 0.859 µg/mL)
CC(C)COC(=O)Oc1c(C(=O)N[C@@H](C(=O)N[C@@H]2C(=O)N3[C@@H]2SC(C)(C)[C@@H]3C(=O)O)c2ccccc2)cnc2ccc(C(C)C)cc12 [Beisp. 11, 6-[D-(-)-α-([4'-Isobutoxycarbonyloxy-6'-isopropyl-chinolinoyl-3']-carboxamido)-α-phenylacetamido]-penicillansäure-Natriumsalz]	12.5 µM (≈ 8.28 µg/mL)	12.5 µM (≈ 8.28 µg/mL)	12.5 µM (≈ 8.28 µg/mL)	1.56 µM (≈ 1.03 µg/mL)	3.12 µM (≈ 2.07 µg/mL)	12.5 µM (≈ 8.28 µg/mL)	0.78 µM (≈ 0.517 µg/mL)	3.12 µM (≈ 2.07 µg/mL)	12.5 µM (≈ 8.28 µg/mL)	3.12 µM (≈ 2.07 µg/mL)	3.12 µM (≈ 2.07 µg/mL)	3.12 µM (≈ 2.07 µg/mL)	25 µM (≈ 16.6 µg/mL)	3.12 µM (≈ 2.07 µg/mL)
CCc1cc2c(OC(=O)OCC(C)C)c(C(=O)N[C@@H](C(=O)N[C@@H]3C(=O)N4[C@@H]3SC(C)(C)[C@@H]4C(=O)O)c3ccccc3)cnc2cc1CN1CCOCC1 [Beisp. 14, 6-[D-(-)-α-([4'-Isobutoxycarbonyloxy-6'-ethyl-7'-morpholinomethylen-chinolinoyl-3']-carboxamido)-α-phenylacetamido]-penicillansäure-Natriumsalz]	6.25 µM (≈ 4.67 µg/mL)	6.25 µM (≈ 4.67 µg/mL)	3.12 µM (≈ 2.33 µg/mL)	0.78 µM (≈ 0.583 µg/mL)	0.78 µM (≈ 0.583 µg/mL)	3.12 µM (≈ 2.33 µg/mL)	0.2 µM (≈ 0.15 µg/mL)	0.78 µM (≈ 0.583 µg/mL)	3.12 µM (≈ 2.33 µg/mL)	0.78 µM (≈ 0.583 µg/mL)	6.25 µM (≈ 4.67 µg/mL)	1.56 µM (≈ 1.17 µg/mL)	3.12 µM (≈ 2.33 µg/mL)	0.78 µM (≈ 0.583 µg/mL)
CCc1cc2c(OC(=O)OCC(C)C)c(C(=O)N[C@@H](C(=O)N[C@@H]3C(=O)N4[C@@H]3SC(C)(C)[C@@H]4C(=O)O)c3ccccc3)cnc2cc1COc1ccc(C(C)=O)cc1 [Beisp. 15, 6-[D-(-)-α-([4'-Isobutoxycarbonyloxy-6'-ethyl-7'-(4''-acetyl)-phenoxymethylen-chinolinoyl-3']-carboxamido)-α-phenylacetamido]-penicillansäure-Natriumsalz]	3.12 µM (≈ 2.49 µg/mL)	6.25 µM (≈ 4.98 µg/mL)	3.12 µM (≈ 2.49 µg/mL)	3.12 µM (≈ 2.49 µg/mL)	1.56 µM (≈ 1.24 µg/mL)	3.12 µM (≈ 2.49 µg/mL)	0.39 µM (≈ 0.311 µg/mL)	0.78 µM (≈ 0.622 µg/mL)	3.12 µM (≈ 2.49 µg/mL)	0.78 µM (≈ 0.622 µg/mL)	3.12 µM (≈ 2.49 µg/mL)	1.56 µM (≈ 1.24 µg/mL)	6.25 µM (≈ 4.98 µg/mL)	0.78 µM (≈ 0.622 µg/mL)
CCc1cc2c(OC(=O)OCC(C)C)c(C(=O)N[C@@H](C(=O)N[C@@H]3C(=O)N4[C@@H]3SC(C)(C)[C@@H]4C(=O)O)c3ccccc3)cnc2cc1COc1ccc(Cl)c(C)c1 [Beisp. 17, 6-[D-(-)-α-([4'-Isobutoxycarbonyloxy-6'-ethyl-7'-(3''-methyl-4''-chlor)-phenoxymethylen-chinolinoyl-3']-carboxamido)-α-phenylacetamido]-penicillansäure-Natriumsalz]	6.25 µM (≈ 5.02 µg/mL)	25 µM (≈ 20.1 µg/mL)	6.25 µM (≈ 5.02 µg/mL)	6.25 µM (≈ 5.02 µg/mL)	1.56 µM (≈ 1.25 µg/mL)	6.25 µM (≈ 5.02 µg/mL)	0.78 µM (≈ 0.627 µg/mL)	1.56 µM (≈ 1.25 µg/mL)	6.25 µM (≈ 5.02 µg/mL)	0.39 µM (≈ 0.313 µg/mL)	1.56 µM (≈ 1.25 µg/mL)	3.12 µM (≈ 2.51 µg/mL)	25 µM (≈ 20.1 µg/mL)	1.56 µM (≈ 1.25 µg/mL)
CCc1cc2c(OC(=O)OCC(C)C)c(C(=O)N[C@@H](C(=O)N[C@@H]3C(=O)N4[C@@H]3SC(C)(C)[C@@H]4C(=O)O)c3ccccc3)cnc2cc1COC [Beisp. 18, 6-[D-(-)-α-([4'-Isobutoxycarbonyloxy-6'-ethyl-7'-methoxymethylen-chinolinoyl-3']-carboxamido)-α-phenylacetamido]-penicillansäure-Natriumsalz]	6.25 µM (≈ 4.33 µg/mL)	25 µM (≈ 17.3 µg/mL)	6.25 µM (≈ 4.33 µg/mL)	0.78 µM (≈ 0.54 µg/mL)	1.56 µM (≈ 1.08 µg/mL)	6.25 µM (≈ 4.33 µg/mL)	0.39 µM (≈ 0.27 µg/mL)	3.12 µM (≈ 2.16 µg/mL)	6.25 µM (≈ 4.33 µg/mL)	0.78 µM (≈ 0.54 µg/mL)	1.56 µM (≈ 1.08 µg/mL)	3.12 µM (≈ 2.16 µg/mL)	0.39 µM (≈ 0.27 µg/mL)	1.56 µM (≈ 1.08 µg/mL)
COc1cc2ncc(C(=O)N[C@@H](C(=O)N[C@@H]3C(=O)N4[C@@H]3SC(C)(C)[C@@H]4C(=O)O)c3ccccc3)c(OC(=O)OCC(C)C)c2cc1OC [Beisp. 20, 6-[D-(-)-α-([4'-Isobutoxycarbonyloxy-6',7'-dimethoxychinolinoyl-3']-carboxamido)-α-phenylacetamido]-penicillansäure-Natriumsalz]	12.5 µM (≈ 8.51 µg/mL)	12.5 µM (≈ 8.51 µg/mL)	12.5 µM (≈ 8.51 µg/mL)	0.39 µM (≈ 0.265 µg/mL)	3.12 µM (≈ 2.12 µg/mL)	12.5 µM (≈ 8.51 µg/mL)	0.39 µM (≈ 0.265 µg/mL)	6.25 µM (≈ 4.25 µg/mL)	6.25 µM (≈ 4.25 µg/mL)	1.56 µM (≈ 1.06 µg/mL)	1.56 µM (≈ 1.06 µg/mL)	3.12 µM (≈ 2.12 µg/mL)	25 µM (≈ 17 µg/mL)	1.56 µM (≈ 1.06 µg/mL)
CCc1cc2c(OC(=O)OCC(C)C)c(C(=O)N[C@@H](C(=O)N[C@@H]3C(=O)N4[C@@H]3SC(C)(C)[C@@H]4C(=O)O)c3ccccc3)cnc2cc1COC(C)C [Beisp. 21, 6-[D-(-)-α-([4'-Isobutoxycarbonyloxy-6'-ethyl-7'-isopropoxymethylen-chinolinoyl-3']-carboxamido)-α-phenylacetamido]-penicillansäure-Natriumsalz]	6.25 µM (≈ 4.51 µg/mL)	12.5 µM (≈ 9.01 µg/mL)	6.25 µM (≈ 4.51 µg/mL)	0.78 µM (≈ 0.562 µg/mL)	1.56 µM (≈ 1.12 µg/mL)	6.25 µM (≈ 4.51 µg/mL)	0.39 µM (≈ 0.281 µg/mL)	1.56 µM (≈ 1.12 µg/mL)	6.25 µM (≈ 4.51 µg/mL)	0.78 µM (≈ 0.562 µg/mL)	1.56 µM (≈ 1.12 µg/mL)	3.12 µM (≈ 2.25 µg/mL)	12.5 µM (≈ 9.01 µg/mL)	1.56 µM (≈ 1.12 µg/mL)
